Converted amounts (≈) assume the structure as drawn.
Tests used:
MCF7 = assay: Cytotoxicity against human MCF7 cells after 48 hrs by SRB assay; type: functional, cell-based; conditions: MCF7, 48 h
Homo sapiens = species on record: Homo sapiens; assay: Inhibition of VEGFR (unknown origin) using [33P]-ATP as substrate at 10 uM after 30 mins by scintillation counting analysis relative to control
[1] = target: Proto-oncogene tyrosine-protein kinase Src (Homo sapiens) (UniProt P12931); assay: Inhibition of c-Src (unknown origin) using [33P]-ATP as substrate at 10 uM after 30 mins by scintillation counting analysis relative to control
Proto-oncogene tyrosine-protein kinase Src (Homo sapiens), sequence (P12931 2-536 limits assumed): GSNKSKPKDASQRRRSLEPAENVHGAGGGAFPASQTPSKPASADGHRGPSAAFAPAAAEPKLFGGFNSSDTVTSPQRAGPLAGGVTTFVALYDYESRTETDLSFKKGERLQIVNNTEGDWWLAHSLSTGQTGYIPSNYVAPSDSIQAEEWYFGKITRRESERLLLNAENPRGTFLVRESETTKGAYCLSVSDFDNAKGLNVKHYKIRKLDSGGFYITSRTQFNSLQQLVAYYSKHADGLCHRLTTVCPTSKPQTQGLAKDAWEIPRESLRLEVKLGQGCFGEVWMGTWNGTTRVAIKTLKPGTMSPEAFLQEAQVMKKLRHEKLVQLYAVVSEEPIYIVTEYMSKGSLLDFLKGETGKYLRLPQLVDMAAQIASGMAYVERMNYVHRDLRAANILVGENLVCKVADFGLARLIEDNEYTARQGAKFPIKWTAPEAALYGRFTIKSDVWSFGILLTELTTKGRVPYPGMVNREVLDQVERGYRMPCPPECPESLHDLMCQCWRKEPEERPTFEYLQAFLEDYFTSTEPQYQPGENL

| inhibition (Homo sapiens) [%] | inhibition [1] [%] | Structure (SMILES) | IC50 (MCF7) [µg/mL] |
| --- | --- | --- | --- |
|  |  | N#CC1=C(NC(=S)Nc2ccccc2)NC(=S)N2CCCC12 (stereo not given) | 20.8 (≈ 63.1 µM) |
|  |  | O=C1N(c2ccccc2)c2[nH]c(=S)nc(/N=C/c3ccc(Cl)cc3)c2C2CCCN12 (stereo not given) | 12.4 (≈ 28.4 µM) |
|  |  | O=C1N(c2ccccc2)c2[nH]c(=S)nc(/N=C/c3ccc(Cl)cc3)c2C2CCCCCN12 (stereo not given) | 10.6 (≈ 22.8 µM) |
|  |  | Nc1nc(=S)[nH]c2c1C1CCCN1C(=O)N2c1ccccc1 (stereo not given) | 13.6 (≈ 43.4 µM) |
|  |  | N#CC1=C(NC(=S)Nc2ccccc2)N(c2ccccc2)C(=O)N2CCCC12 (stereo not given) | 16.6 (≈ 42.6 µM) |
|  |  | N#CC1=C(N2C(=O)CN(c3ccccc3)C2=O)N(c2ccccc2)C(=O)N2CCCC12 (stereo not given) | 18.6 (≈ 45 µM) |
|  |  | Nc1nc(=S)[nH]c2c1C1CCCN1C(=S)N2c1ccccc1 (stereo not given) | 22.8 (≈ 69.2 µM) |
|  |  | O=C1N(c2ccccc2)c2[nH]c(=S)sc(=O)c2C2CCCN12 (stereo not given) | 17 (≈ 51.3 µM) |
| 11 | 0 | N=c1c2c([nH]c(=O)n1-c1ccccc1)N(c1ccccc1)C(=O)N1CCCC21 (stereo not given) | 9.6 (≈ 25.7 µM) |
| 0 | 0 | N#CCC(=O)NC1=C(C#N)C2CCCN2C(=O)N1c1ccccc1 (stereo not given) | 12.8 (≈ 39.8 µM) |
|  |  | O=c1sc(=S)[nH]c2c1C1CCCN1C(=S)N2c1ccccc1 (stereo not given) | 18.8 (≈ 54.1 µM) |
|  |  | NNc1ncnc2c1C1CCCN1C(=O)N2c1ccccc1 (stereo not given) | 11 (≈ 37.1 µM) |
|  |  | O=c1[nH]cnc2c1C1CCCN1C(=S)N2c1ccccc1 (stereo not given) | 20 (≈ 67 µM) |
|  |  | Nc1nc(=S)[nH]c2c1C1CCCCCN1C(=O)N2c1ccccc1 (stereo not given) | 10.8 (≈ 31.6 µM) |
|  |  | O=C1N(c2ccccc2)c2[nH]c(=S)sc(=O)c2C2CCCCCN12 (stereo not given) | 14 (≈ 38.9 µM) |
| 25 | 45 | N#CC1=C(N2C(=O)C(=O)N(c3ccccc3)C2=O)N(c2ccccc2)C(=O)N2CCCC12 (stereo not given) | 10.8 (≈ 25.3 µM) |
|  |  | N#CC1=C(NC(=O)Nc2ccccc2)N(c2ccccc2)C(=O)N2CCCC12 (stereo not given) | 19.8 (≈ 53 µM) |
|  |  | O=C1N(c2ccccc2)c2nc[nH]c(=O)c2C2CCCN12 (stereo not given) | 14.8 (≈ 52.4 µM) |
|  |  | Cc1ccc(NC(=O)CNC2=C(C#N)C3CCCN3C(=O)N2c2ccccc2)cc1 (stereo not given) | 21.6 (≈ 53.8 µM) |
|  |  | Cc1ccc(NC(=O)CNC2=C(C#N)C3CCCN3C(=S)N2c2ccccc2)cc1 (stereo not given) | 12.8 (≈ 30.7 µM) |
| 3 | 81 | O=C1N(c2ccccc2)c2nc[nH]c(=O)c2C2CCCCCN12 (stereo not given) | 11.2 (≈ 36.1 µM) |
|  |  | N#CC1=C(NC(=O)Nc2ccccc2)N(c2ccccc2)C(=S)N2CCCC12 (stereo not given) | 14.2 (≈ 36.5 µM) |

Reference: ChEMBL document CHEMBL2434883, “Novel heterocyclic-fused pyrimidine derivatives: synthesis, molecular modeling and pharmacological screening” (Eur J Med Chem, 2013)
